Results as given in PubChem BioAssay AID2060488 (Molecular Pharmacology Branch, DTP, NCI, 2025).

Tested on: 966289-007-R4-J1-PDC complex spheroid viability
Assay: Anticancer human tumor 966289-007-R4-J1-PDC patient-derived pancreatic adenocarcinoma cell line growth inhibition [GQUAD]
Conditions: for IC50: curve of first compound; for viability, T/C: stronger effect = lower value; active = viability on the fitted dose curve at most 10% of control; inactive = the rest
How it was run: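 Viability of tumor cells grown as complex spheroids with endothelial and stromal cells, exposed to drug combinations. Top concentration at or near clinical Cmax (else 10 microM), diluted in half-log increments.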

[1] = second compound 0.0316 µM, first compound 0.0316 µM
[2] = second compound 0.0316 µM, first compound 0.1 µM
[3] = second compound 0.0316 µM, first compound 0.316 µM
[4] = second compound 0.0316 µM, first compound 1 µM
[5] = second compound 0.0316 µM, first compound 3.16 µM
[6] = second compound 0.0316 µM, first compound 10 µM
[7] = second compound 0.1 µM, first compound 0.0316 µM
[8] = second compound 0.1 µM, first compound 0.1 µM
[9] = second compound 0.1 µM, first compound 0.316 µM
[10] = second compound 0.1 µM, first compound 1 µM
[11] = second compound 0.1 µM, first compound 3.16 µM
[12] = second compound 0.1 µM, first compound 10 µM
[13] = second compound 0.316 µM, first compound 0.0316 µM
[14] = second compound 0.316 µM, first compound 0.1 µM
[15] = second compound 0.316 µM, first compound 0.316 µM
[16] = second compound 0.316 µM, first compound 1 µM
[17] = second compound 0.316 µM, first compound 3.16 µM
[18] = second compound 0.316 µM, first compound 10 µM
[19] = second compound 1 µM, first compound 0.0316 µM
[20] = second compound 1 µM, first compound 0.1 µM
[21] = second compound 1 µM, first compound 0.316 µM
[22] = second compound 1 µM, first compound 1 µM
[23] = second compound 1 µM, first compound 3.16 µM
[24] = second compound 1 µM, first compound 10 µM
[25] = second compound 3.16 µM, first compound 0.0316 µM
[26] = second compound 3.16 µM, first compound 0.1 µM
[27] = second compound 3.16 µM, first compound 0.316 µM
[28] = second compound 3.16 µM, first compound 1 µM
[29] = second compound 3.16 µM, first compound 3.16 µM
[30] = second compound 3.16 µM, first compound 10 µM
[31] = second compound 10 µM, first compound 0.0316 µM
[32] = second compound 10 µM, first compound 0.1 µM
[33] = second compound 10 µM, first compound 0.316 µM
[34] = second compound 10 µM, first compound 1 µM
[35] = second compound 10 µM, first compound 3.16 µM
[36] = second compound 10 µM, first compound 10 µM
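Also: spheroids exposed to the agents for seven days before readout.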
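For viability, T/C in this document: percent viability relative to DMSO vehicle control wells taken as 100%.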

COc1cc(C2c3cc4c(cc3C(OC3OC5COC(C)OC5C(O)C3O)C3COC(=O)C23)OCO4)cc(OC)c1O (stereo unspecified) + CN(C)c1ccc(Nc2c3ccc(NC(=O)CCN4CCCC4)cc3nc3cc(NC(=O)CCN4CCCC4)ccc23)cc1
270 nM: IC50 (second compound 3.16 µM)
inactive: viability, T/C [1] 115% | viability, T/C [2] 105% | viability, T/C [3] 46.6% | viability, T/C [7] 111% | viability, T/C [8] 107% | viability, T/C [9] 46.6% | viability, T/C [13] 101% | viability, T/C [14] 104% | viability, T/C [15] 41.9% | viability, T/C [19] 104% | viability, T/C [20] 109% | viability, T/C [21] 42.4% | viability, T/C [25] 96.1% | viability, T/C [26] 108% | viability, T/C [27] 41.8% | viability, T/C [31] 108% | viability, T/C [32] 98.1% | viability, T/C [33] 19.4%
271 nM: IC50 (second compound 0.316 µM)
276 nM: IC50 (second compound 1 µM)
300 nM: IC50 (second compound 0.0316 µM)
202 nM: IC50 (second compound 10 µM)
active: viability, T/C [4] 9.16% | viability, T/C [5] 1.79% | viability, T/C [6] 0.77% | viability, T/C [10] 9.53% | viability, T/C [11] 1.99% | viability, T/C [12] 0.86% | viability, T/C [16] 5.72% | viability, T/C [17] 2.08% | viability, T/C [18] 0.76% | viability, T/C [22] 6.82% | viability, T/C [23] 1.89% | viability, T/C [24] 1.07% | viability, T/C [28] 6.04% | viability, T/C [29] 2.44% | viability, T/C [30] 0.87% | viability, T/C [34] 3.24% | viability, T/C [35] 1.49% | viability, T/C [36] 0.61%
301 nM: IC50 (second compound 0.1 µM)

CCc1c2c(nc3ccc(O)cc13)-c1cc3c(c(=O)n1C2)COC(=O)[C@]3(O)CC + Cc1[nH]c2ccc(F)cc2c1-c1nc2c3cccnc3c3ncccc3c2[nH]1
< 0.999 nM: IC50 (second compound 0.0316 µM) | IC50 (second compound 0.1 µM) | IC50 (second compound 0.316 µM) | IC50 (second compound 1 µM) | IC50 (second compound 3.16 µM) | IC50 (second compound 10 µM)
active: viability, T/C (second compound 0.0316 µM, first compound 0.00316 µM) 0.77% | viability, T/C (second compound 0.0316 µM, first compound 0.00999 µM) 0.82% | viability, T/C [1] 0.49% | viability, T/C (second compound 0.0316 µM, first compound 0.0999 µM) 0.89% | viability, T/C [3] 0.5% | viability, T/C (second compound 0.1 µM, first compound 0.00316 µM) 0.75% | viability, T/C (second compound 0.1 µM, first compound 0.00999 µM) 0.91% | viability, T/C [7] 0.51% | viability, T/C (second compound 0.1 µM, first compound 0.0999 µM) 0.52% | viability, T/C [9] 0.36% | viability, T/C (second compound 0.316 µM, first compound 0.00316 µM) 0.9% | viability, T/C (second compound 0.316 µM, first compound 0.00999 µM) 0.74% | viability, T/C [13] 0.45% | viability, T/C (second compound 0.316 µM, first compound 0.0999 µM) 0.43% | viability, T/C [15] 0.36% | viability, T/C (second compound 1 µM, first compound 0.00316 µM) 1.12% | viability, T/C (second compound 1 µM, first compound 0.00999 µM) 0.71% | viability, T/C [19] 0.56% | viability, T/C (second compound 1 µM, first compound 0.0999 µM) 0.34% | viability, T/C [21] 0.36% | viability, T/C (second compound 3.16 µM, first compound 0.000999 µM) 9.81% | viability, T/C (second compound 3.16 µM, first compound 0.00316 µM) 1.09% | viability, T/C (second compound 3.16 µM, first compound 0.00999 µM) 0.59% | viability, T/C [25] 0.67% | viability, T/C (second compound 3.16 µM, first compound 0.0999 µM) 0.58% | viability, T/C [27] 0.4% | viability, T/C (second compound 10 µM, first compound 0.000999 µM) 5.35% | viability, T/C (second compound 10 µM, first compound 0.00316 µM) 1.12% | viability, T/C (second compound 10 µM, first compound 0.00999 µM) 0.71% | viability, T/C [31] 0.43% | viability, T/C (second compound 10 µM, first compound 0.0999 µM) 0.31% | viability, T/C [33] 0.38%
inactive: viability, T/C (second compound 0.0316 µM, first compound 0.000999 µM) 20.7% | viability, T/C (second compound 0.1 µM, first compound 0.000999 µM) 17.3% | viability, T/C (second compound 0.316 µM, first compound 0.000999 µM) 15.4% | viability, T/C (second compound 1 µM, first compound 0.000999 µM) 14.3%

COc1ccc([C@@H](O)c2cc(-c3ncnc4cc(N5CCOCC5)ccc34)c(F)cc2Cl)nn1 + Cc1cnc(CNC(=O)c2c(=O)c3ccc(N4CCCN(C)CC4)nc3n3c2sc2ccccc23)cn1
826 nM: IC50 (second compound 0.0316 µM)
active: viability, T/C [19] 7.16% | viability, T/C [20] 7.76% | viability, T/C [21] 6.22% | viability, T/C [22] 5.28% | viability, T/C [23] 7.22% | viability, T/C [24] 6.81% | viability, T/C [25] 5.73% | viability, T/C [26] 5.42% | viability, T/C [27] 4.82% | viability, T/C [28] 4.3% | viability, T/C [29] 6.69% | viability, T/C [30] 6.78% | viability, T/C [31] 0.11% | viability, T/C [32] 0.13% | viability, T/C [33] 0.3% | viability, T/C [34] 0.15% | viability, T/C [35] 0.42% | viability, T/C [36] 0.15%
inactive: viability, T/C [1] 119% | viability, T/C [2] 109% | viability, T/C [3] 107% | viability, T/C [4] 38.6% | viability, T/C [5] 36% | viability, T/C [6] 26% | viability, T/C [7] 47.7% | viability, T/C [8] 37.2% | viability, T/C [9] 21.7% | viability, T/C [10] 11.2% | viability, T/C [11] 12.2% | viability, T/C [12] 13.2% | viability, T/C [13] 14.1% | viability, T/C [14] 15% | viability, T/C [15] 10.7% | viability, T/C [16] 9.67% | viability, T/C [17] 12.2% | viability, T/C [18] 10.4%
< 31.6 nM: IC50 (second compound 0.1 µM) | IC50 (second compound 0.316 µM) | IC50 (second compound 1 µM) | IC50 (second compound 3.16 µM) | IC50 (second compound 10 µM)
